Test results as given in patent US10392391B2 (Vertex Pharmaceuticals Incorporated, priority 2012, dated 2019).

biological target: ATR kinase (full-length ATR) (Homo sapiens (Human), UniProt Q13535); assay: ATR inhibition assay (radioactive-phosphate incorporation); assay type: biochemical; settings: not given
Procedure, shortened: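 Radiometric 33P incorporation by 5 nM full-length ATR into 800 μM target peptide with 10 μM [γ-33P]ATP, in 50 mM Tris/HCl pH 7.5, 10 mM MgCl2, 1 mM DTT, 7% DMSO, 25° C. Compound pre-incubated 10 minutes; reaction stopped after 24 hours, captured on phosphocellulose. Ki(app) from non-linear regression of initial rates.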

Sequence of ATR kinase (full-length ATR) (Q13535 whole entry): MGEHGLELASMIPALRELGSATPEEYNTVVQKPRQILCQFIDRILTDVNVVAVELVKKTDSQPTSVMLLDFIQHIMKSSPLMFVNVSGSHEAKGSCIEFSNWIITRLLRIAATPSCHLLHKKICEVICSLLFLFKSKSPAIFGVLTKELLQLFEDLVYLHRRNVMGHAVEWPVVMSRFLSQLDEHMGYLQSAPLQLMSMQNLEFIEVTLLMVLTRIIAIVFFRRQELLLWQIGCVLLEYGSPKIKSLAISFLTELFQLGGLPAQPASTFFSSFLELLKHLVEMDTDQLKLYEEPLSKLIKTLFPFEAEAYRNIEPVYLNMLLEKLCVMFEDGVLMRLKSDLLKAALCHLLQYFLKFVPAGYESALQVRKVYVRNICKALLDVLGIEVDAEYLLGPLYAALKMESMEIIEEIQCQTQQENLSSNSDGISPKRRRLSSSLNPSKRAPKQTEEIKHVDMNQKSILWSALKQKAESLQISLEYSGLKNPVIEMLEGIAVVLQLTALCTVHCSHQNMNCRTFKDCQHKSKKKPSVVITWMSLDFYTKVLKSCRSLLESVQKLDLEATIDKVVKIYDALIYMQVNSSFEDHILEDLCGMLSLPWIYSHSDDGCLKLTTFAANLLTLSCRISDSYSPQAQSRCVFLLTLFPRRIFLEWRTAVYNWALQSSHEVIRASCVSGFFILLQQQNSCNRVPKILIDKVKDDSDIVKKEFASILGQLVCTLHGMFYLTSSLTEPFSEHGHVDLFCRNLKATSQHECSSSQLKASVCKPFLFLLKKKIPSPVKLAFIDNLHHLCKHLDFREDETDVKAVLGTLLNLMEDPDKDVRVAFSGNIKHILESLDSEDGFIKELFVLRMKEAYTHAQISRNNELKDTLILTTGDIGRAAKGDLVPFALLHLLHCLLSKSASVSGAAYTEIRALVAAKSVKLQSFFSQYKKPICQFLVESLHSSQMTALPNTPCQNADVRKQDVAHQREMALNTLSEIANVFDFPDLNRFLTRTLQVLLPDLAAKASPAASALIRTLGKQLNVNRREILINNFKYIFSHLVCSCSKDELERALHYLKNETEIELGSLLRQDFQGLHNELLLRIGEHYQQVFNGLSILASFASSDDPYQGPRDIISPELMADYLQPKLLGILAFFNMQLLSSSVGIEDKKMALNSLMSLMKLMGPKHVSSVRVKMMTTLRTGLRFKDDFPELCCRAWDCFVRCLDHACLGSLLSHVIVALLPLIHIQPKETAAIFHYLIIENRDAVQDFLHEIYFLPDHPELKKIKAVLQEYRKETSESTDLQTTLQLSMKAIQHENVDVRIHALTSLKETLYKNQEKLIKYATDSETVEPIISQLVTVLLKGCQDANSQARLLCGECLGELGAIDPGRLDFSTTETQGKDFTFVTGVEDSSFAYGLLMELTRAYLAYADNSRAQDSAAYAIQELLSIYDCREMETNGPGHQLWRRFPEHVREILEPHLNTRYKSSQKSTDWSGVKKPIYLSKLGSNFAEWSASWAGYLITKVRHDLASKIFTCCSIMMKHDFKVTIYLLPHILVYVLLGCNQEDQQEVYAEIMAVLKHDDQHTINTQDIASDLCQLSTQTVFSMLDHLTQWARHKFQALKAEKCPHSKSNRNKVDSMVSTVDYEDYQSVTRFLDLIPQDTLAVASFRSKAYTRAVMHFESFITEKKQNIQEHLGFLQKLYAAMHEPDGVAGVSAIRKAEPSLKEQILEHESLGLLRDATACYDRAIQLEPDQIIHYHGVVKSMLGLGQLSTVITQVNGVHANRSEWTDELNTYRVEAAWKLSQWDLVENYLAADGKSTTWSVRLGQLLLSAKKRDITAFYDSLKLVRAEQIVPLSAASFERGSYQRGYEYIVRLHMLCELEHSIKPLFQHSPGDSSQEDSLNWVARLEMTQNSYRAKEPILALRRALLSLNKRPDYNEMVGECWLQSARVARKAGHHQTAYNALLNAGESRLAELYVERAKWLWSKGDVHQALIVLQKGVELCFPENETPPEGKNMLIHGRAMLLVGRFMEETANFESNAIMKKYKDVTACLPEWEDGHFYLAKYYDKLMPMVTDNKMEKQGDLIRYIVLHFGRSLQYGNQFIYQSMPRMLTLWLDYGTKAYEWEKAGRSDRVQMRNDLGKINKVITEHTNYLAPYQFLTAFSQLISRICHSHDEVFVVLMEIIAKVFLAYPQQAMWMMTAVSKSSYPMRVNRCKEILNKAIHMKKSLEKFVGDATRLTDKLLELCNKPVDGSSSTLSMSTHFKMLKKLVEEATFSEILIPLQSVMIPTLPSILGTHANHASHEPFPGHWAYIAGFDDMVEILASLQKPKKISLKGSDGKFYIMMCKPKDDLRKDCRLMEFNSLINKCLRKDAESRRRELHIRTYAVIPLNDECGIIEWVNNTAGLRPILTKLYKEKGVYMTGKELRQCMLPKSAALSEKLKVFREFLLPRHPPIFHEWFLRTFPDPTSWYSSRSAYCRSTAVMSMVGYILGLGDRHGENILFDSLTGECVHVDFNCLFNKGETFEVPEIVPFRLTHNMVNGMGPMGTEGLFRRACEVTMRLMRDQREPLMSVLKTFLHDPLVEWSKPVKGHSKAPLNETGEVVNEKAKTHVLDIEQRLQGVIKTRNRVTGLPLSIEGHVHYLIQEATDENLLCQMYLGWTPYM

Row | Structure (SMILES) | Ki [nM]
1 | CN1CCN(c2ccncc2NC(=O)c2c(N)nn3cc(C(C)(C)C#N)cnc23)CC1 [I-N-76, 2-amino-6-(2-cyanopropan-2-yl)-N-(4-(4-methylpiperazin-1-yl)pyridin-3-yl)pyrazolo[1,5-a]pyrimidine-3-carboxamide] | 1000 to 5000
2 | CN1CCN(c2c(C#N)cncc2NC(=O)c2c(N)nn3cc(F)cnc23)CC1 [I-N-113, 2-amino-N-(5-cyano-4-(4-methylpiperazin-1-yl)pyridin-3-yl)-6-fluoropyrazolo[1,5-a]pyrimidine-3-carboxamide] | 1000 to 5000

same assay, conditions: Ki(app), 5 nM full-length ATR, 10 μM ATP, 25° C.

Row | Structure (SMILES) | Ki [nM]
3 | CN(C)CCCNC(=O)C1CCN(c2c(F)cncc2NC(=O)c2c(N)nn3cc(F)cnc23)CC1 [I-G-26, 2-amino-N-(4-(4-((3-(dimethylamino)propyl)carbamoyl)piperidin-1-yl)-5-fluoropyridin-3-yl)-6-fluoropyrazolo[1,5-a]pyrimidine-3-carboxamide] | 10 to 1000
4 | Nc1nn2cc(Cl)cnc2c1C(=O)Nc1cnccc1N1CCC(N2CC(F)(F)C2)CC1 [I-N-108, 2-amino-6-chloro-N-(4-(4-(3,3-difluoroazetidin-1-yl)piperidin-1-yl)pyridin-3-yl)pyrazolo[1,5-a]pyrimidine-3-carboxamide] | 10 to 1000
5 | CC1(N2CCN(C(=O)C3CCN(c4c(F)cncc4NC(=O)c4c(N)nn5cc(F)cnc45)CC3)CC2)COC1 [I-G-92, 2-amino-6-fluoro-N-(5-fluoro-4-(4-(4-(3-methyloxetan-3-yl)piperazine-1-carbonyl)piperidin-1-yl)pyridin-3-yl)pyrazolo[1,5-a]pyrimidine-3-carboxamide] | 10 to 1000
6 | CS(=O)(=O)C1CN(C(=O)C2CCN(c3c(F)cncc3NC(=O)c3c(N)nn4cc(F)cnc34)CC2)C1 [I-G-86, 2-amino-6-fluoro-N-(5-fluoro-4-(4-(3-(methylsulfonyl)azetidine-1-carbonyl)piperidin-1-yl)pyridin-3-yl)pyrazolo[1,5-a]pyrimidine-3-carboxamide] | 10 to 1000
7 | Nc1nn2cc(F)cnc2c1C(=O)Nc1cncc(F)c1N1CCN(S(=O)(=O)C2COC2)CC1 [I-N-201] | 10 to 1000
8 | CN1CCC[C@@H]1C(=O)N1CCN(c2ccncc2NC(=O)c2c(N)nn3cc(F)cnc23)CC1 [I-N-199, (R)-2-amino-6-fluoro-N-(4-(4-(1-methylpyrrolidine-2-carbonyl)piperazin-1-yl)pyridin-3-yl)pyrazolo[1,5-a]pyrimidine-3-carboxamide] | 10 to 1000
9 | Cc1nc(O[C@@H]2CCN(C)C2)ccc1-c1ccncc1NC(=O)c1c(N)nn2cc(F)cnc12 [I-C-41, (R)-2-amino-6-fluoro-N-(2-methyl-6-((1-methylpyrrolidin-3-yl)oxy)-[3,4′-bipyridin]-3′-yl)pyrazolo[1,5-a]pyrimidine-3-carboxamide] | 10 to 1000
10 | Nc1nn2cc(F)cnc2c1C(=O)Nc1cncc(F)c1N1CCN(S(=O)(=O)C2CCOCC2)CC1 [I-N-158, 2-amino-6-fluoro-N-(5-fluoro-4-(4-((tetrahydro-2H-pyran-4-yl)sulfonyl)piperazin-1-yl)pyridin-3-yl)pyrazolo[1,5-a]pyrimidine-3-carboxamide] | 10 to 1000
11 | N#CCc1cnc2c(C(=O)Nc3cnccc3N3CCOC(CN)C3)c(N)nn2c1 (stereo not drawn) [I-N-90, 2-amino-N-(4-(2-(aminomethyl)morpholino)pyridin-3-yl)-6-(cyanomethyl)pyrazolo[1,5-a]pyrimidine-3-carboxamide] | 10 to 1000
12 | Nc1nn2cc(F)cnc2c1C(=O)Nc1cnccc1N1CCC(C(=O)N2CCC3(COC3)C2)CC1 [I-G-84, N-(4-(4-(2-oxa-6-azaspiro[3.4]octane-6-carbonyl)piperidin-1-yl)pyridin-3-yl)-2-amino-6-fluoropyrazolo[1,5-a]pyrimidine-3-carboxamide] | 10 to 1000
13 | CS(=O)(=O)N1CCN(c2ccncc2NC(=O)c2c(N)nn3cc(F)cnc23)CC1 [I-N-178, 2-amino-6-fluoro-N-(4-(4-(methylsulfonyl)piperazin-1-yl)pyridin-3-yl)pyrazolo[1,5-a]pyrimidine-3-carboxamide] | 10 to 1000
14 | N#CCc1cnc2c(C(=O)Nc3cnccc3OC3CCCCC3)c(N)nn2c1 [I-O-39, 2-amino-6-(cyanomethyl)-N-(4-(cyclohexyloxy)pyridin-3-yl)pyrazolo[1,5-a]pyrimidine-3-carboxamide] | < 10
15 | CC1(O)CN(C(=O)C2CCN(c3c(F)cncc3NC(=O)c3c(N)nn4cc(F)cnc34)CC2)C1 [I-G-63, 2-amino-6-fluoro-N-(5-fluoro-4-(4-(3-hydroxy-3-methylazetidine-1-carbonyl)piperidin-1-yl)pyridin-3-yl)pyrazolo[1,5-a]pyrimidine-3-carboxamide] | 10 to 1000
16 | CNc1cc(OC)c(NC(=O)c2c(N)nn3cc(F)cnc23)cn1 [I-O-90, 2-amino-6-fluoro-N-(4-methoxy-6-(methylamino)pyridin-3-yl)pyrazolo[1,5-a]pyrimidine-3-carboxamide] | 10 to 1000
17 | N#CCc1cnc2c(C(=O)Nc3cnccc3O[C@H]3CCOC3)c(N)nn2c1 [I-O-42, (S)-2-amino-6-(cyanomethyl)-N-(4-((tetrahydrofuran-3-yl)oxy)pyridin-3-yl)pyrazolo[1,5-a]pyrimidine-3-carboxamide] | < 10
18 | N#CCc1cnc2c(C(=O)Nc3cnccc3N3CCC(N)CC3)c(N)nn2c1 [I-N-2, 2-amino-N-(4-(4-aminopiperidin-1-yl)pyridin-3-yl)-6-(cyanomethyl)pyrazolo[1,5-a]pyrimidine-3-carboxamide] | 10 to 1000

Row | Structure (SMILES) | Ki [nM]
19 | CCN1CCCCC1C(=O)N1CCN(c2c(F)cncc2NC(=O)c2c(N)nn3cc(F)cnc23)CC1 (stereo not drawn) [I-N-204, 2-amino-N-(4-(4-(1-ethylpiperidine-2-carbonyl)piperazin-1-yl)-5-fluoropyridin-3-yl)-6-fluoropyrazolo[1,5-a]pyrimidine-3-carboxamide] | 10 to 1000
20 | CN1CCC(C(=O)N2CCC(c3ccncc3NC(=O)c3c(N)nn4cc(F)cnc34)CC2)CC1 [I-C-16, 2-amino-6-fluoro-N-(4-(1-(1-methylpiperidine-4-carbonyl)piperidin-4-yl)pyridin-3-yl)pyrazolo[1,5-a]pyrimidine-3-carboxamide] | 10 to 1000
21 | Nc1nn2cc(F)cnc2c1C(=O)Nc1cnccc1N1CCN2C(=O)CCCC2C1 (stereo not drawn) [I-N-244, 2-amino-6-fluoro-N-(4-(6-oxohexahydro-1H-pyrido[1,2-a]pyrazin-2(6H)-yl)pyridin-3-yl)pyrazolo[1,5-a]pyrimidine-3-carboxamide] | 10 to 1000
22 | Nc1nn2cc(F)cnc2c1C(=O)Nc1cncc(F)c1OC1CCN(C2COC2)CC1 [I-O-91, 2-amino-6-fluoro-N-(5-fluoro-4-((1-(oxetan-3-yl)piperidin-4-yl)oxy)pyridin-3-yl)pyrazolo[1,5-a]pyrimidine-3-carboxamide] | 10 to 1000
23 | C[C@H]1CN(C(=O)C2CCN(c3c(F)cncc3NC(=O)c3c(N)nn4cc(F)cnc34)CC2)CCN1 [I-G-61, (S)-2-amino-6-fluoro-N-(5-fluoro-4-(4-(3-methylpiperazine-1-carbonyl)piperidin-1-yl)pyridin-3-yl)pyrazolo[1,5-a]pyrimidine-3-carboxamide] | 10 to 1000
24 | Nc1nn2cc(Cl)cnc2c1C(=O)Nc1cnccc1N1CCN(C2CC2)CC1 [I-N-64, 2-amino-6-chloro-N-(4-(4-cyclopropylpiperazin-1-yl)pyridin-3-yl)pyrazolo[1,5-a]pyrimidine-3-carboxamide] | 10 to 1000
25 | CN1CCOC(C(=O)N2CCN(c3c(F)cncc3NC(=O)c3c(N)nn4cc(F)cnc34)CC2)C1 (stereo not drawn) [I-N-174, 2-amino-6-fluoro-N-(5-fluoro-4-(4-(4-methylmorpholine-2-carbonyl)piperazin-1-yl)pyridin-3-yl)pyrazolo[1,5-a]pyrimidine-3-carboxamide] | 10 to 1000
26 | N#CCc1cnc2c(C(=O)Nc3cnccc3OC3CCCC3)c(N)nn2c1 [I-O-43, 2-amino-6-(cyanomethyl)-N-(4-(cyclopentyloxy)pyridin-3-yl)pyrazolo[1,5-a]pyrimidine-3-carboxamide] | < 10
27 | CCN1CCN(C(=O)C2CCN(c3c(F)cncc3NC(=O)c3c(N)nn4cc(F)cnc34)CC2)CC1 [I-G-9, 2-amino-N-(4-(4-(4-ethylpiperazine-1-carbonyl)piperidin-1-yl)-5-fluoropyridin-3-yl)-6-fluoropyrazolo[1,5-a]pyrimidine-3-carboxamide] | 10 to 1000
28 | Nc1nn2cc(F)cnc2c1C(=O)Nc1cnccc1N1CCCC2(COC2)C1 [I-N-253, N-(4-(2-oxa-6-azaspiro[3.5]nonan-6-yl)pyridin-3-yl)-2-amino-6-fluoropyrazolo[1,5-a]pyrimidine-3-carboxamide] | 10 to 1000
29 | Nc1nn2cc(F)cnc2c1C(=O)Nc1cncc(F)c1N1CCC(N2CCOCC2)CC1 [I-N-189, 2-amino-6-fluoro-N-(5-fluoro-4-(4-morpholinopiperidin-1-yl)pyridin-3-yl)pyrazolo[1,5-a]pyrimidine-3-carboxamide] | 10 to 1000
30 | Cc1nccn1-c1ccncc1NC(=O)c1c(N)nn2cc(F)cnc12 [I-N-28, 2-amino-6-fluoro-N-(4-(2-methyl-1H-imidazol-1-yl)pyridin-3-yl)pyrazolo[1,5-a]pyrimidine-3-carboxamide] | 10 to 1000
31 | CNC1CCN(c2ccncc2NC(=O)c2c(N)nn3cc(Cl)cnc23)CC1 [I-N-87, 2-amino-6-chloro-N-(4-(4-(methylamino)piperidin-1-yl)pyridin-3-yl)pyrazolo[1,5-a]pyrimidine-3-carboxamide] | 10 to 1000
32 | Cc1ccncc1NC(=O)c1c(N)nn2cc(CC#N)cnc12 [I-C-3, 2-amino-6-(cyanomethyl)-N-(4-methylpyridin-3-yl)pyrazolo[1,5-a]pyrimidine-3-carboxamide] | 10 to 1000
33 | COC1(C)CN(C(=O)C2CCN(c3c(F)cncc3NC(=O)c3c(N)nn4cc(F)cnc34)CC2)C1 [I-G-75, 2-amino-6-fluoro-N-(5-fluoro-4-(4-(3-methoxy-3-methylazetidine-1-carbonyl)piperidin-1-yl)pyridin-3-yl)pyrazolo[1,5-a]pyrimidine-3-carboxamide] | 10 to 1000
